# Assay results from patent US7794994B2 (Kemeta, LLC, priority 2001, dated 2010).
# How the values were obtained:
# [1] = tested on: S-ADH from X. autotrophicus strain Py2; assay: Secondary alcohol dehydrogenase NADH oxidation spectrophotometric assay; format: biochemical, Xanthobacter autotrophicus strain Py2
# Protocol: Assays were performed in 2 mL quartz cuvettes and contained NAD(H) (0.2 mM), potassium phosphate buffer (25 mM), and a source of enzyme (cell-free extracts, column fractions, or purified enzyme) in a total reaction volume of 1 mL at pH 6.2 ([…]) at 30° C. Assays were pre-incubated for 1.5 min. at 30° C. with all assay components except substrate. Assays were initiated by addition of substrate (2.5 mM) and monitored over time by measuring the change in absorbance at 340 nm (∈340 of 6.22 mM^−1·cm^−1 for NADH).
# Data analysis. Kinetic constants (Km and Vmax) were calculated by fitting initial rate data to the Michaelis-Menten equation and using the software KaleidaGraph Fourth Edition, (Synergy Software, Reading, Pa.).
# [2] = constant perfusion at 1.36 mmol/min. for three hours; cited from earlier work
# [3] = tested on: 3-enzyme system (S-ADH coupled to lactate dehydrogenase and pyruvate oxidase); assay: S-ADH coupled to H2O2 formation electrochemical assay (3-enzyme system), interference compounds; format: biochemical, X. autotrophicus Py2; conditions: Acetone plus 10 mM ethanol, 50 μM isopropanol or 50 μM isobutanol; data not shown
# Protocol: Secondary alcohol dehydrogenase coupled to H2O2 formation electrochemical assay. […] Before measurements the electrode surface was polished using Al2O3 paste for 1 min. and then rinsed with deionized water, sonicated for 1 min. and rinsed with water again. The polished Pt electrode was then pretreated electrochemically by applying 10 cycles of 100 mV/s from +200 mV to +900 mV. All potentials were referenced versus a Ag/AgCl electrode (BAS part number MF-2078). Assays contained potassium phosphate (100 mM, pH 7.2), purified S-ADH (1 U/mL), NADH (201 μM), lactate (100 mM), lactate dehydrogenase (5 U/mL), pyruvate oxidase (4 U/mL), flavin adenine dinucleotide (0.01 mM), cocarboxylase (0.2 mM), in a total volume of 0.5 mL. […] After a 2 min. incubation period, the potential was stepped from open circuit to 350 mV.
compound,measurement,setting,value
"NC(=O)C1=CN([C@@H]2O[C@H](COP(=O)(O)OP(=O)(O)OC[C@H]3O[C@@H](n4cnc5c(N)ncnc54)[C@H](O)[C@@H]3O)[C@@H](O)[C@H]2O)C=CC1 [NADH, nicotinamide adenine dinucleotide, reduced form]",Km,"[1]; acetone at fixed saturating concentration, read-out: Km for NADH",5.1 ± 0.4 µM
same,ability to serve as electron donor in acetone reduction assays,[1]; data not shown,could serve as the electron donor
"NC(=O)C1=CN([C@@H]2O[C@H](COP(=O)(O)OP(=O)(O)OC[C@H]3O[C@@H](n4cnc5c(N)ncnc54)[C@H](OP(=O)(O)O)[C@@H]3O)[C@@H](O)[C@H]2O)C=CC1 [NADPH, nicotinamide adenine dinucleotide phosphate, reduced form]",ability to serve as electron donor in acetone reduction assays,[1]; data not shown,not
CC(=O)CC(=O)[O-].[Na+] [Na acetoacetate],blood ketone body concentration at the end of perfusion,[2],3 µmol·mL
CC(C)CO [isobutanol],interference with the acetone measurement (current response),[3],do not interfere
CO [methanol],inhibition of S-ADH activity,"[1]; saturating acetone, alcohol at about 13-fold over the Km value for acetone, data not shown",no inhibition was observed
